The values below come from ChEMBL document CHEMBL4387773, “Identification of potent, selective and orally bioavailable phenyl ((R)-3-phenylpyrrolidin-3-yl)sulfone analogues as RORγt inverse agonists” (Bioorg Med Chem Lett, 2019).

Series [1] addresses T1, Nuclear receptor ROR-alpha (Homo sapiens, UniProt P35398).
T1 sequence (P35398 whole entry): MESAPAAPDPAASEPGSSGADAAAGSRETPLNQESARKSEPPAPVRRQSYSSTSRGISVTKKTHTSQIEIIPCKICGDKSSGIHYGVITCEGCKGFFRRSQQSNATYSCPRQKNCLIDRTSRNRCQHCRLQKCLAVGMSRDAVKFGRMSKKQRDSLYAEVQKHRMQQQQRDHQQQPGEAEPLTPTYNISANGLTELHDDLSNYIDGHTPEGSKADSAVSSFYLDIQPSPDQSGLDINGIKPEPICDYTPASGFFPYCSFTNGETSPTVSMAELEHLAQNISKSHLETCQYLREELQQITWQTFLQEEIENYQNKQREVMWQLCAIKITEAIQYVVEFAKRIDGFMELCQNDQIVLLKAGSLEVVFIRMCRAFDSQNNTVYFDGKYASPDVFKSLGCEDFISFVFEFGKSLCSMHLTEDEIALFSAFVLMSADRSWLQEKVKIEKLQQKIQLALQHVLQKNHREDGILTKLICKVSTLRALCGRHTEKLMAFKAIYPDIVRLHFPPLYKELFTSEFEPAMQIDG
Description: Inverse agonist activity at human Gal4-fused RORalpha LBD (272 to 556 residues) expressed in human Jurkat cells measured after 18 hrs by steady-glo luciferase reporter gene assay. It is filed as cell-based. A general note: In a reporter assay the amount or activity of a reporter protein is the signal.

Series [2] has as its target T2, Nuclear receptor ROR-beta (Homo sapiens, UniProt Q92753).
T2 sequence (Q92753 whole entry): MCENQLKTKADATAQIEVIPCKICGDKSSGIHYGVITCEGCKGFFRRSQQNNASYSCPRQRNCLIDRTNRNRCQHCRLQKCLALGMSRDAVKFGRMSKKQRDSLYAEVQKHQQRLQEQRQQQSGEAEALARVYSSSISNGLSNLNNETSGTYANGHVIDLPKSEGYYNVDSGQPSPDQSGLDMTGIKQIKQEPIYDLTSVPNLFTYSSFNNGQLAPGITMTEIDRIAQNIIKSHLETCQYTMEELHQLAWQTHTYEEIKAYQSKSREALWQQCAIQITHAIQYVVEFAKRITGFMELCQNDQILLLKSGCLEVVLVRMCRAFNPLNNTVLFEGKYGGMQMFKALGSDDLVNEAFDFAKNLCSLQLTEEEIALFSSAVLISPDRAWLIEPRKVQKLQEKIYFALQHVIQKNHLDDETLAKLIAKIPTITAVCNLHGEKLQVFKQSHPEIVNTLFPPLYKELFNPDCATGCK
Description: Inverse agonist activity at human Gal4-fused RORbeta LBD (200 to 559 residues) expressed in human Jurkat cells measured after 18 hrs by steady-glo luciferase reporter gene assay. It is filed as cell-based.

For series [3], the target named is T3, Oxysterols receptor LXR-alpha (Homo sapiens, UniProt Q13133).
T3 sequence (Q13133 whole entry): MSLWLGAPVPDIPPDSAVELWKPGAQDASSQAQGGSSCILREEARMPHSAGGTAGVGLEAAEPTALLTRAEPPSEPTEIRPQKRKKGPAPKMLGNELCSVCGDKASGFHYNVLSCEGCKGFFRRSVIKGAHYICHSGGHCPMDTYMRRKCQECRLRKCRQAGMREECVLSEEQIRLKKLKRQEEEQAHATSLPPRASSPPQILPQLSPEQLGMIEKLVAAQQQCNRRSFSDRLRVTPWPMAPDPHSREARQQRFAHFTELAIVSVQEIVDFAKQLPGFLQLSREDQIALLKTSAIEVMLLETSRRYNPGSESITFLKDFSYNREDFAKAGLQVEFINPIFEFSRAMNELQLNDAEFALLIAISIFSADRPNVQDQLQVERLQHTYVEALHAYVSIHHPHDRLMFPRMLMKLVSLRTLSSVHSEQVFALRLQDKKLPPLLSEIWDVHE
The series can be described thus: Transactivation of human GAL4-fused LXRalpha expressed in African green monkey CV1 cells. The class given is cell-based.

The target of series [4] is T4, Oxysterols receptor LXR-beta (Homo sapiens, UniProt P55055).
T4 sequence (P55055 whole entry): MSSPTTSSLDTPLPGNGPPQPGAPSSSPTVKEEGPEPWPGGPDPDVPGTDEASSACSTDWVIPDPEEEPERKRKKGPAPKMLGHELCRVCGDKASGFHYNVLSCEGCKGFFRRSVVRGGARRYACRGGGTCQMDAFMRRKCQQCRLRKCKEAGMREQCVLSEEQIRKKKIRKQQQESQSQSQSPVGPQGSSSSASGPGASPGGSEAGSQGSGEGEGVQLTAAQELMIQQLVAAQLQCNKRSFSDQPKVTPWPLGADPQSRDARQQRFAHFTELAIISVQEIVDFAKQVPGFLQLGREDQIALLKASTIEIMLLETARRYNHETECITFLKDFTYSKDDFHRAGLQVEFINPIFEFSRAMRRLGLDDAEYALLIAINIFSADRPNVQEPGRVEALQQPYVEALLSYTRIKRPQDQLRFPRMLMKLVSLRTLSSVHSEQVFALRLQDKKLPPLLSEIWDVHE
The series can be described thus: Transactivation of human GAL4-fused LXRbeta expressed in African green monkey CV1 cells. It is filed as cell-based.

A short description of series [5]: Stability in human liver microsomes assessed as parent compound remaining after 10 mins. It is filed as ADME, Microsome. To be noted: liver microsomes, read-out: Stability.
For series [6], the target named is T5, Nuclear receptor subfamily 1 group I member 2 (Homo sapiens, UniProt O75469).
T5 sequence (O75469 whole entry): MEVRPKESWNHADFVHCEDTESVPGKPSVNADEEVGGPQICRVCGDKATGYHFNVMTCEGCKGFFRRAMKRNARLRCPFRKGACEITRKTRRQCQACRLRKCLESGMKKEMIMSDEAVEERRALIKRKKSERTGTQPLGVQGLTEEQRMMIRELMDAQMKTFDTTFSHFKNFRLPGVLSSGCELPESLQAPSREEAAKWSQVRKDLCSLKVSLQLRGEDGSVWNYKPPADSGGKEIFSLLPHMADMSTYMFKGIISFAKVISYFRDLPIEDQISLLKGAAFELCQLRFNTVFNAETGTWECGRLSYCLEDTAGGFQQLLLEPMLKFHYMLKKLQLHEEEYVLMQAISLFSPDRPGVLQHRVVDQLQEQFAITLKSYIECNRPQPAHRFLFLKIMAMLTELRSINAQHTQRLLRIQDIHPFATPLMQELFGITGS
The series can be described thus: Transactivation of PXR (unknown origin) expressed in human HepG2 cells. It is filed as cell-based.

The next series has as its target T6, PXR (Homo sapiens, UniProt O75469).
T6 sequence (O75469 whole entry): T5 sequence (O75469 whole entry)
The series can be described thus: Transactivation of PXR (unknown origin) expressed in human HepG2 cells assessed as maximum receptor activation response relative to control. It is filed as cell-based. Particulars: human HepG2 cells that express PXR, read-out: %max.

The nature of series [7]: Stability in mouse liver microsomes assessed as parent compound remaining after 10 mins. Particulars: liver microsomes, read-out: Stability. The class given is ADME, Microsome. A general note: Microsomes from liver hold many membrane-bound enzymes, among them those of drug oxidation.

With `COC(=O)[C@H]1CC[C@H](C(=O)N2CC[C@](c3ccc(C(F)(C(F)(F)F)C(F)(F)F)cc3)(S(=O)(=O)c3ccc(F)cc3)C2)CC1`, the EC50 was over 40 µM in series [1], over 40 µM in series [2], over 7.5 µM in series [3] and over 7.5 µM in series [4].

As to `O=C(C1CCS(=O)(=O)C1)N1CC[C@](c2ccc(C(F)(C(F)(F)F)C(F)(F)F)cc2)(S(=O)(=O)c2ccc(F)cc2)C1` (stereo in doubt; 32), the remaining at 10 min in series [5] is 100%; in series [7], 78%. The EC50 is over 13 µM in series [6]; over 40 µM in series [1]; over 40 µM in series [2]; over 7.5 µM in series [3]; over 7.5 µM in series [4]. Moreover, at PXR, the Emax was found to be 49%.

For the compound `O=C([C@H]1CC[C@](F)(C(=O)O)CC1)N1CC[C@](c2ccc(C(F)(C(F)(F)F)C(F)(F)F)cc2)(S(=O)(=O)c2ccc(F)cc2)C1`, the remaining at 10 min is 100% in series [5] and 70% in series [7]. For the same compound, the EC50 in series [6] was over 17 µM; in series [1] it was over 40 µM; in series [2], over 40 µM; in series [3] it was over 7.5 µM; in series [4] it was over 7.5 µM. Moreover, on PXR, the Emax was 62%.

`O=C(O)C12CCC(C(=O)N3CC[C@](c4ccc(C(F)(C(F)(F)F)C(F)(F)F)cc4)(S(=O)(=O)c4ccc(F)cc4)C3)(CC1)C2`: the 50% effective concentration (EC50) is over 40 µM in series [1], over 40 µM in series [2], over 7.5 µM in series [3] and over 7.5 µM in series [4].

Regarding `C[C@]1(C(=O)O)CC[C@H](C(=O)N2CC[C@](c3ccc(C(F)(C(F)(F)F)C(F)(F)F)cc3)(S(=O)(=O)c3ccc(F)cc3)C2)CC1`, the remaining at 10 min is 97% in series [5] and 93% in series [7]. The concentration for a half-maximal effect (EC50) is over 50 µM in series [6]; over 40 µM in series [1]; over 40 µM in series [2]; over 7.5 µM in series [3]; over 7.5 µM in series [4]. For the same compound, the Emax at PXR was 18%.

`O=C([C@H]1CC[C@@](F)(C(=O)O)CC1)N1CC[C@](c2ccc(C(F)(C(F)(F)F)C(F)(F)F)cc2)(S(=O)(=O)c2ccc(F)cc2)C1`: the remaining at 10 min in series [5] amounted to 82%; in series [7] it was 94%. For the same compound, the concentration for a half-maximal effect (EC50) was over 22 µM in series [6]; over 40 µM in series [1]; over 40 µM in series [2]; over 7.5 µM in series [3]; over 7.5 µM in series [4]. The Emax on PXR was 69%.

In the case of `O=C(O)[C@H]1[C@@H]2C[C@@H](C(=O)N3CC[C@](c4ccc(C(F)(C(F)(F)F)C(F)(F)F)cc4)(S(=O)(=O)c4ccc(F)cc4)C3)C[C@@H]21`, the remaining at 10 min in series [5] worked out at 100%. Besides, the half-maximal effective concentration (EC50) was over 50 µM in series [6]; over 40 µM in series [1]; over 40 µM in series [2]; over 7.5 µM in series [3]; over 7.5 µM in series [4]. Further, the Emax on PXR is 15%.

Consider `O=C(O)[C@H]1CC[C@](F)(C(=O)N2CC[C@](c3ccc(C(F)(C(F)(F)F)C(F)(F)F)cc3)(S(=O)(=O)c3ccc(F)cc3)C2)CC1`, for which the EC50 was 10.6 µM in series [6]; over 40 µM in series [1]; over 40 µM in series [2]; over 7.5 µM in series [3]; over 7.5 µM in series [4]. Besides, the Emax at PXR turned out to be 31%.

Regarding `O=C([C@H]1CC[C@H](c2nnn[nH]2)CC1)N1CC[C@](c2ccc(C(F)(C(F)(F)F)C(F)(F)F)cc2)(S(=O)(=O)c2ccc(F)cc2)C1`, the remaining at 10 min in series [5] came to 100%; in series [7] it was 73%. The EC50 was over 50 µM in series [6]; over 40 µM in series [1]; over 40 µM in series [2]; over 7.5 µM in series [3]; over 7.5 µM in series [4]. Further, the Emax on PXR amounted to 11%.

On to `COC1(C(=O)N2CC[C@](c3ccc(C(F)(C(F)(F)F)C(F)(F)F)cc3)(S(=O)(=O)c3ccc(F)cc3)C2)CCS(=O)(=O)CC1`, for which the EC50 in series [6] is over 50 µM; in series [1], over 40 µM; in series [2], over 40 µM; in series [3] it was over 7.5 µM; in series [4], over 7.5 µM. The Emax at PXR was determined as 3%.

On to `O=C(N1CC[C@](c2ccc(C(F)(C(F)(F)F)C(F)(F)F)cc2)(S(=O)(=O)c2ccc(F)cc2)C1)C12CCC(C(=O)O)(CC1)OC2`, for which the half-maximal effective concentration (EC50) in series [6] is over 50 µM; in series [1], over 40 µM; in series [2] it was over 40 µM; in series [3], over 7.5 µM; in series [4] it was over 7.5 µM. For the same compound, the Emax on PXR was found to be 5%.

As for `O=C(O)[C@H]1CC[C@H](C(=O)N2CC[C@](c3ccc(C(F)(C(F)(F)F)C(F)(F)F)cc3)(S(=O)(=O)c3ccc(F)cc3)C2)CC1`, in series [5], the remaining at 10 min was determined as 97%. For the same compound, the EC50 in series [1] is over 40 µM; in series [2], over 40 µM; in series [3] it was over 7.5 µM; in series [4] it was over 7.5 µM.

On to `CC[C@]1(C(=O)O)CC[C@H](C(=O)N2CC[C@](c3ccc(C(F)(C(F)(F)F)C(F)(F)F)cc3)(S(=O)(=O)c3ccc(F)cc3)C2)CC1`, for which the remaining at 10 min in series [5] was found to be 100%. Further, the EC50 in series [6] was over 50 µM; in series [1], over 40 µM; in series [2], over 40 µM; in series [3] it was over 7.5 µM; in series [4], over 7.5 µM. In addition, the Emax on PXR was found to be 6%.

As to `CCC[C@]1(C(=O)N2CC[C@](c3ccc(C(F)(C(F)(F)F)C(F)(F)F)cc3)(S(=O)(=O)c3ccc(F)cc3)C2)CC[C@H](C(=O)O)CC1`, the EC50 in series [1] was over 40 µM; in series [2] it was over 40 µM; in series [3] it was over 7.5 µM; in series [4], over 7.5 µM.

`CC1(C(=O)N2CC[C@](c3ccc(C(F)(C(F)(F)F)C(F)(F)F)cc3)(S(=O)(=O)c3ccc(F)cc3)C2)CCS(=O)(=O)CC1`: the EC50 was over 50 µM in series [6]; over 40 µM in series [1]; over 40 µM in series [2]; over 7.5 µM in series [3]; over 7.5 µM in series [4]. Further, the Emax at PXR was 10%.

Usually EC50 stands for the concentration that produces a half-maximal response.
